Read-outs that look alike come from different tables or passages of the source.
Assays:
SARS-CoV-2 PLpro [1] = target: T1, SARS-CoV-2 PLpro (Severe acute respiratory syndrome coronavirus 2, UniProt P0DTD1); assay: biochemical; settings: for kinact/KI / kinact/KI (M^−1 s^−1): second-order rate constant
SARS-CoV-2 PLpro [2] = target: T1, SARS-CoV-2 PLpro; assay: biochemical; type: biochemical; settings: after 30-minute incubation; Z-RLRGG-AMC
[3] = tested on: SARS-CoV-2 Omicron (B.1.1.529); assay: microbe, parasite or virus in culture; type: cell-based; settings: Severe acute respiratory syndrome coronavirus 2, Caco-2
[4] = target: seven human DUBs, UCHL1, USP2, USP4, USP7, USP8, USP15, and USP30; assay: Human deubiquitinase selectivity screening; type: biochemical; settings: for IC50: UCHL1, USP2, USP4, USP7, USP8, USP15, USP30, read-out: IC50 (μM) values versus seven human deubiquitinases; for inhibition of human DUBs: concentrations up to 30 μM
Vero E6 cells [5] = tested on: Vero E6 cells
[6] = mouse, in vivo
Vero E6 cells [7] = settings: 2 μM CP-100356, Delta row
[8] = tested on: SARS-CoV-2 Omicron (B.1.1.529); assay: CPE assay in Vero E6 cells, neutral red staining, Omicron; type: cell-based; settings: Severe acute respiratory syndrome coronavirus 2, Vero C1008
SARS-CoV-2 USA-WA1/2020 [9] = assay: microbe, parasite or virus in culture; type: cell-based; settings: Severe acute respiratory syndrome coronavirus 2, Caco-2
in vitro [10] = settings: African green monkey
in vitro [11] = settings: human
[12] = tested on: SARS-CoV-2 Delta (B.1.617.2); assay: CPE assay in Vero E6 cells, neutral red staining, Delta; type: cell-based; settings: Severe acute respiratory syndrome coronavirus 2, Vero C1008
in vitro [13] = settings: human, microsomes
in vitro [14] = settings: African green monkey; remark: listed apart in the source
[15] = tested on: SARS-CoV-2 Delta (B.1.617.2); assay: microbe, parasite or virus in culture; type: cell-based; settings: Severe acute respiratory syndrome coronavirus 2, Caco-2
SARS-CoV-2 USA-WA1/2020 [16] = assay: CPE assay in Vero E6 cells, neutral red staining, USA-WA1/2020; type: cell-based; settings: Severe acute respiratory syndrome coronavirus 2, Vero C1008
in vitro [17] = settings: human, s9
Caco-2 cells = settings: Delta row
[18] = tested on: SARS-CoV-2 isolate USA-WA1/2020; assay: microbe, parasite or virus in culture; type: cell-based
SARS-CoV-2 PLpro [19] = target: T1, SARS-CoV-2 PLpro; assay: biochemical; settings: ISG15-CHOP2 substrate
SARS-CoV-2 PLpro [20] = target: T1, SARS-CoV-2 PLpro; assay: biochemical; settings: Ub-rhodamine substrate
[21] = tested on: viral replication in Vero E6 cells; settings: K. Ratia et al.; cited from earlier work
SARS-CoV PLpro = SARS-CoV PLpro (Severe acute respiratory syndrome coronavirus (SARS-CoV), UniProt P0C6X7); settings: cited from earlier work
[22] = target: ubiquitin C-terminal hydrolase UCH-L1 (Homo sapiens (Human), UniProt P09936); settings: K. Ratia et al.; cited from earlier work
deISGylase USP18 = deISGylase USP18 (Homo sapiens (Human), UniProt Q9UMW8); settings: K. Ratia et al.; cited from earlier work
cell viability = settings: concentrations up to 50 μM in cell viability assays; cited from earlier work
HAUSP = HAUSP (Homo sapiens (Human), UniProt Q93009); settings: K. Ratia et al.; cited from earlier work
[23] = target: ubiquitin C-terminal hydrolase UCH-L3 (Homo sapiens (Human), UniProt P15374); settings: K. Ratia et al.; cited from earlier work
[24] = time-dependent inhibition yes/no
[25] = cytopathic effect in SARS-CoV-2-infected Vero E6 cells, 48 h, MOI 0.1

## COC(=O)CCc1ccccc1C(=O)N[C@H](C)c1cccc2ccccc12 [Compound 3, methyl (R)-3-(2-((1-(naphthalen-1-yl)ethyl)carbamoyl)phenyl)-propanoate]
SARS-CoV-2 PLpro [1]; [24]
  Time dep.: no

## C[C@@H](NC(=O)c1ccccc1CCC(=O)NN)c1cccc2ccccc12 [Compound 5, (R)-2-(3-hydrazineyl-3-oxopropyl)-N-(1-(naphthalen-1-yl)ethyl)benzamide]
SARS-CoV-2 PLpro [1]; [24]
  Time dep.: no
SARS-CoV-2 PLpro [2]
  IC50: 24 µM

## COC(=O)/C=C/C(=O)NNC(=O)CCc1ccccc1C(=O)N[C@H](C)c1cccc2ccccc12 [Compound 7, methyl(R,E)-4-(2-(3-(2-((1-(naphthalen-1 yl)ethyl)carbamoyl)-phenyl)propanoyl)hydrazineyl)-4-oxobut-2-enoate]
[3]
  EC90: 2.4 µM
[4]
  IC50: > 30 µM
  inhibition of human DUBs: no inhibition was observed
Vero E6 cells [5]
  Cytotox. (<30 μM): no
SARS-CoV-2 PLpro [1]; [24]
  Time dep.: yes
[6]; iv, 3 mg/kg
  exposure following IV dosing: Little exposure was observed
[6]; po, 10 mg/kg
  exposure following PO dosing: no exposure recorded
Vero E6 cells [7]
  CC50: > 10 µM
[8]
  EC50: 0.68 µM
SARS-CoV-2 USA-WA1/2020 [9]
  EC90: 0.26 µM
In vitro [10]
  CC50 at 48 h: > 30 µM
In vitro [11]
  CC50: > 10 µM
[12]
  EC50: 0.29 µM
In vitro [13]
  half-life at 1 μM: 50 min
In vitro [14]
  CC50: > 10 µM
[15]
  EC90: > 10 µM
SARS-CoV-2 USA-WA1/2020 [16]
  EC50: 0.068 µM
In vitro [17]
  half-life at 1 μM: 60 min
Caco-2 cells
  CC50: > 10 µM

## COC(=O)/C=C/C(=O)NNC(=O)CCc1ccc(NC(C)=O)cc1C(=O)N[C@H](C)c1cccc2ccccc12 [Compound 8, methyl-(R,E)-4-(2-(3-(4-acetamido-2-((1-(naphthalen-1-yl)ethyl)carbamoyl)phenyl)propanoyl)hydrazineyl)-4-oxobut-2-enoate]
Vero E6 cells [5]
  Cytotox. (<30 μM): no
SARS-CoV-2 PLpro [1]
  kinact/KI: 14000 M⁻¹ s⁻¹
  kinact/KI (M^−1 s^−1): 14,000 M^−1 s^−1

## C[C@@H](NC(=O)c1ccccc1CCC(=O)NNC(=O)CCl)c1cccc2ccccc12 [Compound 9, (R)-2-(3-(2-(2-chloroacetyl)hydrazineyl)-3-oxopropyl)-N-(1-(naphthalen-1-yl)ethyl)benzamide]
[4]
  IC50: > 30 µM
  inhibition of human DUBs: no inhibition was observed
Vero E6 cells [5]
  Cytotox. (<30 μM): no
SARS-CoV-2 PLpro [1]
  kinact/KI: 100 M⁻¹ s⁻¹
  kinact/KI (M^−1 s^−1): 103 M⁻¹ s⁻¹
SARS-CoV-2 PLpro [1]; [24]
  Time dep.: yes
SARS-CoV-2 PLpro [2]
  IC50: 5.4 µM
[18]; Severe acute respiratory syndrome coronavirus 2, Vero C1008, cytopathic effect in SARS-CoV-2-infected Vero E6 cells, 48 h, MOI 0.1
  EC50: 34 µM
SARS-CoV-2 PLpro [19]
  IC50: 20.2 µM
In vitro [10]
  CC50 at 48 h: > 30 µM
SARS-CoV-2 PLpro [20]
  IC50: 1.96 µM
In vitro [13]
  half-life at 1 μM: 7 min
In vitro [17]
  half-life at 1 μM: 3 min

## CC(=O)Nc1ccc(CCC(=O)NNC(=O)CCl)c(C(=O)N[C@H](C)c2cccc3ccccc23)c1 [Compound 10, (R)-5-acetamido-2-(3-(2-(2-chloroacetyl)hydrazineyl)-3-oxopropyl)-N-(1-(naphthalen-1-yl)ethyl)benzamide]
Vero E6 cells [5]
  Cytotox. (<30 μM): no
SARS-CoV-2 PLpro [1]
  kinact/KI: 120 M⁻¹ s⁻¹
  kinact/KI (M^−1 s^−1): 120 M⁻¹ s⁻¹
SARS-CoV-2 PLpro [1]; [24]
  Time dep.: yes
SARS-CoV-2 PLpro [2]
  IC50: 4.4 µM
[18]; SARS-CoV-2-infected Vero E6 cells
  cytoprotective effects: insignificant cytoprotective effects
[18]; [25]
  EC50 (μM): no CPE

## C[C@@H](NC(=O)c1ccccc1CCC(=O)NNC(=O)CC#N)c1cccc2ccccc12 [Compound 11, (R)-2-(3-(2-(2-cyanoacetyl)hydrazineyl)-3-oxopropyl)-N-(1-(naphthalen-1-yl)ethyl)benzamide]
Vero E6 cells [5]
  Cytotox. (<30 μM): no
SARS-CoV-2 PLpro [1]; [24]
  Time dep.: not and no
SARS-CoV-2 PLpro [2]
  IC50: 8 µM
[18]; [25]
  EC50 (μM): no CPE

## C#CC(=O)NNC(=O)CCc1ccccc1C(=O)N[C@H](C)c1cccc2ccccc12 [Compound 12, (R)—N-(1-(naphthalen-1-yl)ethyl)-2-(3-oxo-3-(2-propioloylhydrazineyl)propyl)benzamide]
Vero E6 cells [5]
  Cytotox. (<30 μM): yes
SARS-CoV-2 PLpro [1]
  kinact/KI: 4800 M⁻¹ s⁻¹
SARS-CoV-2 PLpro [1]; [24]
  Time dep.: Time-dependent inhibition was observed and yes
SARS-CoV-2 PLpro [2]
  IC50: 0.098 µM
[18]; [25]
  EC50 (μM): no CPE
In vitro [10]
  CC50 at 48 h: 1 to 5 µM

## C[C@@H](NC(=O)c1ccccc1CCC(=O)NNC(=O)C(C#N)=CC1CC1)c1cccc2ccccc12 [Compound 13, (R)-2-(3-(2-(2-cyano-3-cyclopropylacryloyl)hydrazineyl)-3-oxopropyl)-N-(1-(naphthalen-1-yl)ethyl)benzamide]
Vero E6 cells [5]
  Cytotox. (<30 μM): yes
SARS-CoV-2 PLpro [1]; [24]
  Time dep.: not and no
SARS-CoV-2 PLpro [2]
  IC50: > 200 µM
[18]; [25]
  EC50 (μM): no CPE
In vitro [10]
  CC50 at 48 h: 1 to 5 µM

## Cc1ccccc1C(=O)N[C@H](C)c1cccc2ccccc12 [Compound 14, (R)-2-methyl-N-(1-(naphthalen-1-yl)ethyl)benzamide]
Vero E6 cells [5]
  Cytotox. (<30 μM): no
SARS-CoV-2 PLpro [2]
  IC50: 100 µM
[18]; [25]
  EC50 (μM): no CPE
In vitro [13]
  half-life at 1 μM: 41 min
[21]
  EC50: 10 µM
In vitro [17]
  half-life at 1 μM: > 60 min

## CC(=O)Nc1ccc(C)c(C(=O)N[C@H](C)c2cccc3ccccc23)c1 [Compound 15, (R)-5-acetamido-2-methyl-N-(1-(naphthalen-1-yl)ethyl)benzamide]
Vero E6 cells [5]
  Cytotox. (<30 μM): no
SARS-CoV-2 PLpro [2]
  IC50: 6.2 µM
[18]; [25]
  EC50 (μM): no CPE
SARS-CoV PLpro
  IC50: 2.6 µM
[21]
  EC50: 13.1 µM

## CCC(CC)COC(=O)[C@H](C)N[P@](=O)(OC[C@H]1O[C@@](C#N)(c2ccc3c(N)ncnn23)[C@H](O)[C@@H]1O)Oc1ccccc1 [remdesivir, reference compound]
[18]; Severe acute respiratory syndrome coronavirus 2, Vero C1008, 48 h
  EC50: 0.74 µM

## GRL0617
SARS-CoV-2 PLpro [1]
  Time dep.: no
[22]
  IC50: > 100 µM
deISGylase USP18
  IC50: > 100 µM
Cell viability
  cytotoxicity: does not display cytotoxicity
HAUSP
  IC50: > 100 µM
[23]
  IC50: > 100 µM

Source: patent US12234202B2, “Covalent inhibitors of coronavirus papain-like protease” (UT-Battelle, LLC, priority 2021, dated 2025)
